Test results as given in patent EP0511791A2, “Pyrrolopyridine derivatives as Angiotensin inhibitors” (ZENECA LIMITED, priority 1991, dated 1992).

System: angiotensin II-induced pressor responses
Assay: Test C: antagonism of angiotensin II-induced pressor responses in rats
Format: in vivo
Details: Rattus norvegicus, iv, i.v. administration
Experimental: Test C: This in vivo test involves using terminally-anaesthetised or conscious rats in which an arterial catheter has been implanted under anaesthesia for the measurement of changes in blood pressure. The All antagonistic effects of the test compound following oral or parenteral administration, are assessed against angiotensin II-induced pressor responses. To ensure that the effect is specific, the effect of the test compound on vasopressin-induced pressor responses may also be determined in the same preparation.

`Cc1cc2c(cc(C)n2Cc2ccc(-c3ccccc3-c3nnn[nH]3)cc2)c(Cl)n1.Cl` [Example 2, 4-chloro-2,6-dimethyl-1-[(2'-(1H-tetrazol-5-yl)biphenyl-4-yl)methyl]-1H-pyrrolo[3,2-c]pyridine hydrochloride] gave an ED50 of 0.4 mg/kg.
